According to patent US20230066011A1, “PYRROLOPYRIMIDINE DERIVATIVE, AND PHARMACEUTICAL COMPOSITION FOR PREVENTING OR TREATING PROTEIN KINASE-RELATED DISEASE COMPRISING SAME AS ACTIVE INGREDIENT” (VORONOI CO., LTD., priority 2019, published 2023):

Experiments:
Type in all cases: biochemical
human GST-DYRK1A = target: T1, human GST-DYRK1A (Homo sapiens, UniProt Q13627); assay: GST-DYRK1A enzyme inhibition, ADP-Glo kinase assay; details: ATP 10 μM, GST-DYRK1A full length, read-out: DYRK1 IC50
T1 construct: purified human GST-DYRK1A (full length, Thermo Scientifics) enzyme; purchased Thermo Scientifics
In short: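 Full-length human GST-DYRK1A (10 ng) with 10 μM ATP and specific substrate in 40 mM Tris-HCl pH 7.4, 20 mM MgCl2, 0.5 mg/mL BSA, 50 μM DTT, 1 h at 25 °C. ADP formation read by ADP-Glo luminescence relative to solvent control; IC50 from three data sets.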

human GST-CLK1 = target: T2, human GST-CLK1 (Homo sapiens, UniProt P49759); assay: GST-CLK1 enzyme inhibition, ADP-Glo kinase assay; details: ATP 10 μM, GST-CLK1 129-end
T2 construct: purified human GST-CLK1 (129-end, SignalChem) enzyme; purchased SignalChem
T2 sequence (P49759 129-484 limits assumed): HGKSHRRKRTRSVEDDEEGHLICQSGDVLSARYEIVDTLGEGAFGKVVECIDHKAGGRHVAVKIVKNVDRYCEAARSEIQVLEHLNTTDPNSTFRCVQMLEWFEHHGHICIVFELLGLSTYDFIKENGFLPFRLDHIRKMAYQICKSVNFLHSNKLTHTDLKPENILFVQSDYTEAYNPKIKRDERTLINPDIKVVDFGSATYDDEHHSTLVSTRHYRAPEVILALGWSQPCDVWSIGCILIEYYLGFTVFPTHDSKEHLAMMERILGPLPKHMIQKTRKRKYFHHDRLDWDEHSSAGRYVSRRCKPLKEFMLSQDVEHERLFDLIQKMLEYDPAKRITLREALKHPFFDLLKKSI
In short: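 Human GST-CLK1 (129-end, 3 ng) reacted with substrate and 10 μM ATP for 1 h at 25° C in 40 mM Tris-HCl pH 7.4, 20 mM MgCl2, 0.5 mg/mL BSA, 50 μM DTT. ADP-Glo luminescence was normalised to solvent control; IC50 (nM) from 3 data sets.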

LRRK2 (G2019S) = LRRK2 (G2019S) (Homo sapiens, UniProt Q5S007, G2019S); assay: LRRK2 G2019S enzyme inhibition, ADP-Glo kinase assay; design: purchased SignalChem L10-12GG; details: ATP 25 μM
Chain of LRRK2 (G2019S) (Q5S007 970-2527 G2019S limits assumed): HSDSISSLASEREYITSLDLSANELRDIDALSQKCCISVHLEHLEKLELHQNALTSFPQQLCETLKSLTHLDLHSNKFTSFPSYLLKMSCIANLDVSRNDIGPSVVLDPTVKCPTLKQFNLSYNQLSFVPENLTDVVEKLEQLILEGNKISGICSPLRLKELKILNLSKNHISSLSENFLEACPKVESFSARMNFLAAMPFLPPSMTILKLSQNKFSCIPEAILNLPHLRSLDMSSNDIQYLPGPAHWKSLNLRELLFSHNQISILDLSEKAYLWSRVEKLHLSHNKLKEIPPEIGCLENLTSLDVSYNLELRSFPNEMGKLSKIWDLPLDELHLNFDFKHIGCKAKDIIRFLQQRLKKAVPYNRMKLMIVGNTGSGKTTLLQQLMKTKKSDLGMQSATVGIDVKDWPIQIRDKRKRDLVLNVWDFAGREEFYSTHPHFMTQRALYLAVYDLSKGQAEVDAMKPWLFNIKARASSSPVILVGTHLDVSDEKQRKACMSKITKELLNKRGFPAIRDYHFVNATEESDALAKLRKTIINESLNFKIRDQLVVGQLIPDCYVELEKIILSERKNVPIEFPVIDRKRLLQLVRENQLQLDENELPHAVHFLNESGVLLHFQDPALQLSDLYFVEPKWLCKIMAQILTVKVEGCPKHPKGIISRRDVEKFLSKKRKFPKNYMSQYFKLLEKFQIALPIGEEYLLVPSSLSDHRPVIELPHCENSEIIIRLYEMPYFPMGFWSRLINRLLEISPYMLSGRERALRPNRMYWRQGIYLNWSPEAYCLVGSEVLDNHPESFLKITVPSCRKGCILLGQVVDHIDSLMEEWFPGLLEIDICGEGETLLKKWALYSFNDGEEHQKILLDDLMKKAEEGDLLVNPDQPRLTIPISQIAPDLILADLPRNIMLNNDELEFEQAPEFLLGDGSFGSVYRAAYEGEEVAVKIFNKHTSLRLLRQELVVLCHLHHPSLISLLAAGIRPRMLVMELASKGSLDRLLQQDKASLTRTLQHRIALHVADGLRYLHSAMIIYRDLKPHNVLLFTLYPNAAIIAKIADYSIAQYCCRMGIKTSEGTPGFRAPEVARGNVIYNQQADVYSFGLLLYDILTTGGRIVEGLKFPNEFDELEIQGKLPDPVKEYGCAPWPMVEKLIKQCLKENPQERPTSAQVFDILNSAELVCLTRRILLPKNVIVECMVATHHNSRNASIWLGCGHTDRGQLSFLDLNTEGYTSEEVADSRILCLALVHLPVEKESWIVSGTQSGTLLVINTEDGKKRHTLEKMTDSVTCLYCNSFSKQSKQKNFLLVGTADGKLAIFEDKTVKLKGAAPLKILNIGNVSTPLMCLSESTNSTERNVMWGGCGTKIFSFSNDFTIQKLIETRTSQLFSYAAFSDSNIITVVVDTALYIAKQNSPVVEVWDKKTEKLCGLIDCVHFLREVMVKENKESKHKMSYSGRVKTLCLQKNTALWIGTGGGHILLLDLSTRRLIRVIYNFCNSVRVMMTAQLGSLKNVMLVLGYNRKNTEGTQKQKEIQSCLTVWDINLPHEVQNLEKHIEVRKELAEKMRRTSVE
Method: To evaluate an inhibitory activity of the compound according to the present invention against LRRK2, LRRK2 (G2019S), DYRK1, CLK1, and TTK kinases, experiments were performed as follows.
Each of the Example compounds was reacted with a purified human LRRK2 G2019S (L10-12GG, SignalChem) enzyme to evaluate an ability to inhibit an enzyme using a method as described below. A composition of 40 mM Tris-HCl (pH 7.4), 20 mM MgCl2, 0.5 mg/mL BSA, and 50 μM DTT was used as a reaction buffer, and all reactions of test substances were performed in the reaction buffer. Each of the compounds was diluted […] from a 10 mM DMSO stock using a serial dilution method, and enzyme activities were measured at final compound concentrations of 50, 10, 2, 0.4, 0.08, 0.016, 0.0032, 0.00064, 0.000128, 0.0000256, 0.00000512, and 0.000001024 μM. In the test, purified ATP (25 μM) and an enzyme substrate (0.2 μg) were reacted with a human LRRK2 G2019S (16 ng) enzyme at 25° C. for 2 hours, and the enzyme activities were then determined using an in vitro ADP-Glo™ kinase assay (Promega). An enzyme-activity reaction solution, an ADP-Glo reaction solution, and an enzyme-ability detection solution were reacted at a ratio of 2:2:1 to measure a degree of inhibition of the enzyme activity with luminescence. The degree of inhibition of the enzyme activity according to the treatment concentration of each of the compounds was calculated based on the fluorescence of the enzyme activity of the solvent control which was not treated with the compound. In this case, the concentration of each of the compounds inhibiting 50% of the enzyme activity was determined to be an IC50 (nM) value, and calculated using Prism (Version 5.01; GraphPad) software.

Structure (SMILES) | IC50 (human GST-DYRK1A) | IC50 (human GST-CLK1) | IC50 (LRRK2 (G2019S))
O=C(c1ccc(Nc2nc(NC3CC3)c3c(C(F)(F)F)c[nH]c3n2)c2c1CCO2)N1CCOCC1 [Example 433, (7-((4-(cyclo-propylamino)-5-(trifluoromethyl)-7H-pyrrolo[2,3-d]pyrimidin-2-yl)amino)-2,3-dihydrobenzo-furan-4-yl) (morpholino) methanone] | 301 to 1000 nM | < 100 nM | < 100 nM
CC(C)Nc1nc(Nc2ccc(C(=O)N3CCC(N4CCOCC4)CC3)c3c2OCC3)nc2[nH]cc(C#N)c12 [Example 353, 4-(isopropylamino)-2-((4-(4-morpholino-piperidine-1-carbonyl)-2,3-dihydro-benzofuran-7-yl)amino)-7H-pyrrolo[2,3-d]pyrimidine-5-carbonitrile] | < 100 nM | < 100 nM | < 100 nM
O=C(c1ccc(Nc2nc(N[C@H]3CCOC3)c3c(C(F)(F)F)c[nH]c3n2)c2c1CCO2)N1CCOCC1 [Example 455] | < 100 nM | < 100 nM | < 100 nM
O=C(c1ccc(Nc2nc(NC3CCCCC3)c3c(C(F)(F)F)c[nH]c3n2)c2c1CCO2)N1CCOCC1 [Example 454, (7-((4-(cyclo-hexylamino)-5-(trifluoromethyl)-7H-pyrrolo[2,3-d]pyrimidin-2-yl)amino)-2,3-dihydrobenzo-furan-4-yl) (morpholino) methanone] | 301 to 1000 nM | 301 to 1000 nM | < 100 nM
CCCCNc1nc(Nc2ccc(P3(=O)CCN(C4CC4)CC3)cc2OC)nc2[nH]cc(C(F)(F)F)c12 [Example 428, 4-(4-((4-(butylamino)-5-(trifluoromethyl)-7H-pyrrolo[2,3-d]pyrimidin-2-yl)amino)-3-methoxyphenyl)-1-cyclopropyl-1,4-azaphosphinane 4-oxide] | 301 to 1000 nM | 301 to 1000 nM | < 100 nM
CC[C@@H](C)Nc1nc(Nc2ccc(C(=O)N3CCOCC3)c3c2OCC3)nc2[nH]cc(C#N)c12 [Example 354, (R)-4-(sec-butylamino)-2-((4-(morpholine-4-carbonyl)-2,3-dihydrobenzo-furan-yl)amino)-7H-pyrrolo[2,3-d]pyrimidine-5-carbonitrile] | 301 to 1000 nM | < 100 nM | < 100 nM
CC[C@H](C)Nc1nc(Nc2ccc(C(=O)N3CCOCC3)c3c2OCC3)nc2[nH]cc(C(F)(F)F)c12 [Example 451, (S)-(7-((4-(sec-butylamino)-5-(trifluoromethyl)-7H-pyrrolo[2,3-d]pyrimidin-2-yl)amino)-2,3-dihydrobenzo-furan-4-yl) (morpholino) methanone] | 301 to 1000 nM | 301 to 1000 nM | < 100 nM
O=C(c1ccc(Nc2nc(NCC3CC3)c3c(C(F)(F)F)c[nH]c3n2)c2c1CCO2)N1CCOCC1 [Example 457, (7-((4-((cyclo-propylmeth-yl)amino)-5-(trifluoromethyl)-7H-pyrrolo[2,3-d]pyrimidin-2-yl)amino)-2,3-dihydrobenzo-furan-4-yl) (morpholino) methanone] | 301 to 1000 nM | < 100 nM | < 100 nM
N#Cc1c[nH]c2nc(Nc3ccc(C(=O)N4CCN(C5COC5)CC4)c4c3OCCO4)nc(NC3CCC3)c12 [Example 289, 4-(cyclo-butylamino)-2-((8-(4-(oxetan-3-yl)piperazine-1-carbonyl)-2,3-dihydrobenzo[b] [1,4]dioxin-5-yl)amino)-7H-pyrrolo[2,3-d]pyrimidine-5-carbonitrile] | 301 to 1000 nM | < 100 nM | < 100 nM
CC(C)CNc1nc(Nc2ccc(C(=O)N3CCOCC3)c3c2OCCO3)nc2[nH]ccc12 [Example 44, (8-((4-(isobutylamino)-7H-pyrrolo[2,3-d]pyrimidin-2-yl)amino)-2,3-dihydrobenzo[b][1,4]dioxin-5-yl)(morpholino)methanone] | 301 to 1000 nM | 301 to 1000 nM | < 100 nM
COc1cc(P2(=O)CCN(C3CC3)CC2)ccc1Nc1nc(NC2CCC2)c2c(C(F)(F)F)c[nH]c2n1 [Example 406] | 301 to 1000 nM | 101 to 300 nM | 101 to 300 nM
O=C(c1ccc(Nc2nc(NC3CCC3)c3cc[nH]c3n2)c2c1OCCO2)N1CCOCC1 [Example 47, (8-((4-(cyclobutylamino)-7H-pyrrolo[2,3-d]pyrimidin-2-yl)amino)-2,3-dihydrobenzo[b][1,4]dioxin-5-yl)(morpholino)methanone] | 301 to 1000 nM | 301 to 1000 nM | < 100 nM
CCNc1nc(Nc2ccc(P3(=O)CCN(Cc4ccc(OC)cc4OC)CC3)cn2)nc2[nH]cc(C(F)(F)F)c12 [Example 153, 1-(2,4-dimethoxybenzyl)-4-(6-((4-(ethylamino)-5-(trifluoromethyl)-7H-pyrrolo[2,3-d]pyrimidin-2-yl)amino)pyridin-3-yl)-1,4-azaphosphinane 4-oxide] | < 100 nM | < 100 nM | < 100 nM

Other lines, results leading:

IC50 (human GST-DYRK1A) | IC50 (human GST-CLK1) | IC50 (LRRK2 (G2019S)) | Structure (SMILES)
301 to 1000 nM | 301 to 1000 nM | < 100 nM | COc1cc(P2(=O)CCN(C3COC3)CC2)ccc1Nc1nc(NCCS(C)(=O)=O)c2c(C#N)c[nH]c2n1 [Example 314, 2-((2-methoxy-4-(1-(oxetan-3-yl)-4-oxido-1,4-azaphosphinan-4-yl)phenyl)amino)-4-((2-(methyl-sulfonyl)eth-yl)amino)-7H-pyrrolo[2,3-d]pyrimidine-5-carbonitrile]
301 to 1000 nM | 301 to 1000 nM | < 100 nM | COc1cc(S(=O)(=O)N2CCC(N3CCOCC3)CC2)ccc1Nc1nc(NCC2CC2)c2cc[nH]c2n1 [Example 32, N^4-(cyclopropylmethyl)-N^2-(2-methoxy-4-((4-morpholinopiperidin-1-yl)sulfonyl)phenyl)-7H-pyrrolo[2,3-d]pyrimidine-2,4-diamine]
301 to 1000 nM | 301 to 1000 nM | < 100 nM | COc1cc(S(=O)(=O)N2CCOCC2)ccc1Nc1nc(NC2CC2)c2cc[nH]c2n1 [Example 57, N^4-cyclopropyl-N^2-(2-methoxy-4-(morpholinosulfonyl)phenyl)-7H-pyrrolo[2,3-d]pyrimidine-2,4-diamine]
301 to 1000 nM | 301 to 1000 nM | < 100 nM | COc1cc(S(=O)(=O)N2CCC(N3CCOCC3)CC2)ccc1Nc1nc(NC2CC2)c2cc[nH]c2n1 [Example 54, N^4-cyclopropyl-N^2-(2-methoxy-4-((4-morpholinopiperidin-1-yl)sulfonyl)phenyl)-7H-pyrrolo[2,3-d]pyrimidine-2,4-diamine]
301 to 1000 nM | 301 to 1000 nM | < 100 nM | COCC(C)(C)Nc1nc(Nc2ccc(S(C)(=O)=O)cc2OC)nc2[nH]ccc12 [Example 36, N^4-(1-methoxy-2-methylpropan-2-yl)-N^2-(2-methoxy-4-(methylsulfonyl)phenyl)-7H-pyrrolo[2,3-d]pyrimidine-2,4-diamine]
301 to 1000 nM | 301 to 1000 nM | < 100 nM | COc1cc(S(C)(=O)=O)ccc1Nc1nc(NCC2CC2)c2c(C#N)c[nH]c2n1 [Example 110, 4-((cyclopropylmethyl)amino)-2-((2-methoxy-4-(methylsulfonyl)phenyl)amino)-7H-pyrrolo[2,3-d]pyrimidine-5-carbonitrile]
301 to 1000 nM | 301 to 1000 nM | < 100 nM | COc1cc(S(=O)(=O)N2CCOCC2)ccc1Nc1nc(NC2CCCCC2)c2cc[nH]c2n1 [Example 26, N^4-cyclohexyl-N^2-(2-methoxy-4-(morpholinosulfonyl)phenyl)-7H-pyrrolo[2,3-d]pyrimidine-2,4-diamine 2,2,2-trifluoroacetate]
301 to 1000 nM | 301 to 1000 nM | < 100 nM | COc1cc(S(=O)(=O)N2CCC(N3CCOCC3)CC2)ccc1Nc1nc(NCC(C)C)c2cc[nH]c2n1 [Example 11, N^4-isobutyl-N^2-(2-methoxy-4-((4-morpholinopiperidin-1-yl)sulfonyl)phenyl)-7H-pyrrolo[2,3-d]pyrimidine-2,4-diamine]
301 to 1000 nM | 301 to 1000 nM | < 100 nM | CNc1nc(Nc2ccc(S(C)(=O)=O)cc2OC)nc2[nH]ccc12 [Example 4, N^2-(2-methoxy-4-(methylsulfonyl)phenyl)-N^4-methyl-7H-pyrrolo[2,3-d]pyrimidine-2,4-diamine 2,2,2-trifluoroacetate]
